Assay results: paper PMC6272674, “Selected Compounds Structurally Related to Acyclic Sesquiterpenoids and Their Antibacterial and Cytotoxic Activity” (Molecules, 2015)
In brackets after ≈: the same amount, converted by molar mass.

Key:
[1] = test system: Staphylococcus aureus ATCC 43300; assay: Micro-dilution broth MIC, Staphylococcus aureus; type: cell-based; conditions: ATCC43300, 24 h, 37 °C, read-out: Minimum Inhibitory Concentrations MIC
Method: (§1) The standard strains, Gram-positive: Staphylococcus aureus ATCC […], Enterococcus faecalis Van B ATCC 51299 and Enterococcus faecium VA sensitive ATCC 35667, and Gram-negative: Escherichia coli ATCC 25922, Klebsiella pneumoniae ATCC 700603 and Acinetobacter baumannii ATCC 19606, came from a collection of the Environmental Biology Department, Medical University of Łódź. The standard strains were cultivated in Columbia Agar Medium and incubated at 37 °C for 24 h in aerobic conditions.
(§2) The antibacterial activity of the racemates and E/Z-mixtures was investigated using the micro‑dilution broth method. The compounds were diluted in ethanol. This stock solution was mixed with 100 µL of Mueller-Hinton broth to obtain concentrations from 10 µg/mL to 80 µg/mL. The mixtures were then transferred to 96-well microtiter plates. The microbial suspension was standardised to a cell density of 1.5 × 10^8 CFU, which was equal to an optical density of 0.5 on the Mc Farland scale by a bio-Merieux densitometer; one well was filled with broth only to act as a control for strain growth.

[2] = test system: Enterococcus faecalis ATCC 51299; assay: Micro-dilution broth MIC, Enterococcus faecalis; type: cell-based; conditions: ATCC51299, 24 h, 37 °C, read-out: Minimum Inhibitory Concentrations MIC
Method: as §1, §2

[3] = test system: Enterococcus faecium ATCC 35667; assay: Micro-dilution broth MIC, Enterococcus faecium; type: cell-based; conditions: ATCC35667, 24 h, 37 °C, read-out: Minimum Inhibitory Concentrations MIC
Method: as §1, §2

[4] = test system: Escherichia coli ATCC 25922; assay: Micro-dilution broth MIC, Escherichia coli; type: cell-based; conditions: ATCC25922, 24 h, 37 °C, read-out: Minimum Inhibitory Concentrations MIC
Method: as §1, §2

[5] = test system: Klebsiella pneumoniae ATCC 700603; assay: Micro-dilution broth MIC, Klebsiella pneumoniae; type: cell-based; conditions: ATCC700603, 24 h, 37 °C, read-out: Minimum Inhibitory Concentrations MIC
Method: as §1, §2

[6] = test system: Acinetobacter baumannii ATCC 19606; assay: Micro-dilution broth MIC, Acinetobacter baumannii; type: cell-based; conditions: ATCC19606, 24 h, 37 °C, read-out: Minimum Inhibitory Concentrations MIC
Method: as §1, §2

Malignant Melanoma MEWO = assay: MTT viability, MEWO; type: cell-based, human; conditions: Homo sapiens, 24 h, range 10–1000 µM, read-out: half maximal inhibitory concentration (IC50), interpolated
Method: (§3) Cell lines and in vitro culture conditions: The human promyelocytic leukaemia cell line HL-60 was obtained from the Centre of Molecular and Macromolecular Biology in Łódź, Poland and was cultured in RPMI 1640 medium with 20% heat-inactivated fetal bovine serum (FBS). To reduce spontaneous differentiation, the cells were never allowed to exceed a concentration of 1.0 × 10^6 cells/mL. The human keratinocyte cell line HaCaT was obtained from Cell Lines Service, Germany (CLS) and cultured in DMEM medium with 10% FBS. Human colorectal adenocarcinoma HT29 and normal epithelial IEC-6 cell lines (from ATCC) were cultured in DMEM medium with 10% FBS. The human skin melanoma cell line MEWO (from CLS) was cultured in DMEM:F12 supplemented with 2 mM L-glutamine and 10% FBS. Human fibroblasts from gingiva isolated from original tissue, HFIB-G, (from Provitro) were cultured in Quantum 333 (from Immunique). The media were supplemented with 100 U/mL penicillin and 100 µg/mL streptomycin; all media components were obtained from Life Technologies. The adherent cell lines used in the studies were seeded on microplates before they exceeded 80% of confluence. Cells were cultured at 37 °C in 5% CO2 air atmosphere/95% air atmosphere.
(§4) Cytotoxic activity: The cells (the density for HL-60 was 0.5 × 10^4 cells/100 µL, otherwise it was 1 × 10^4 cells/100 µL) were plated into each well of 96-well microtiter plates and, after their attachment to the plate surface, treated with 10 µL of the indicated concentrations of compounds for 24 h. Viability was determined by MTT assay following the treatment. MTT (3-[4.5-dimethylthiazol-2-yl]-2.5-diphenyltetrazolium bromide; Sigma, St. Louis, MO, USA) solution was added to each well and incubated for another 4 h. The resulting MTT-formazan product was dissolved by the addition of lysis buffer (20% SDS and 50% DMF). The amount of formazan was determined by measuring absorbance at 570 nm with a Synergy 2 microplate reader (BioTek, Winooski, VT, USA) operated by the Gen5 program. The experiments were conducted three times with five replications. The results are expressed as an optical density ratio of the treatment to control. All data are presented as means ± SD.

MTT viability, HT29 = type: cell-based, human; conditions: human, HT29 colorectal adenocarcinoma cells, 1000 µM (IC50 exceeded 1000 µM), read-out: viability ± standard deviation at 1000 µM
Method: as §3, §4

[7] = test system: Promyelocytic Leukaemia HL-60; assay: MTT viability, HL-60; type: cell-based, human; conditions: Homo sapiens, HL-60, 24 h, HL-60, MTT, range 10–1000 µM, read-out: half maximal inhibitory concentration (IC50), interpolated
Method: as §3, §4

Fibroblasts HFIG = assay: MTT viability, HFIG; type: cell-based, human; conditions: Homo sapiens, Fibroblast, 24 h, range 10–1000 µM, read-out: half maximal inhibitory concentration (IC50), interpolated
Method: as §3, §4

Keratinocytes HaCaT = assay: MTT viability, HaCaT; type: cell-based, human; conditions: Homo sapiens, 24 h, range 10–1000 µM, read-out: half maximal inhibitory concentration (IC50), interpolated
Method: as §3, §4

MTT viability, IEC6 = type: cell-based; conditions: rat, IEC-6 small intestine epithelial cells, 1000 µM (IC50 exceeded 1000 µM), read-out: viability ± standard deviation at 1000 µM
Method: as §3, §4

MTT viability, MEWO = type: cell-based, human; conditions: human, MEWO malignant melanoma cells, 1000 µM (IC50 exceeded 1000 µM), read-out: viability ± standard deviation at 1000 µM
Method: as §3, §4

MTT viability, HFIG = type: cell-based, human; conditions: human, HFIG (HFIB-G) gingival fibroblasts, 1000 µM (IC50 exceeded 1000 µM), read-out: viability ± standard deviation at 1000 µM
Method: as §3, §4

MTT viability, HaCaT = type: cell-based, human; conditions: human, HaCaT keratinocytes, 1000 µM (IC50 exceeded 1000 µM), read-out: viability ± standard deviation at 1000 µM
Method: as §3, §4

| Structure (SMILES) | MIC [1] [µg/mL] | MIC [2] [µg/mL] | MIC [3] [µg/mL] | MIC [4] [µg/mL] | MIC [5] [µg/mL] | MIC [6] [µg/mL] | IC50 (Malignant Melanoma MEWO) [µM] | IC50 [7] [µM] | viability at 24 h, 1000 µM (MTT viability, HT29) [%] | IC50 (Fibroblasts HFIG) [µM] | IC50 (Keratinocytes HaCaT) [µM] | viability at 24 h, 1000 µM (MTT viability, IEC6) [%] | viability at 24 h, 1000 µM (MTT viability, MEWO) [%] | viability at 24 h, 1000 µM (MTT viability, HFIG) [%] | viability at 24 h, 1000 µM (MTT viability, HaCaT) [%] |
| --- | --- | --- | --- | --- | --- | --- | --- | --- | --- | --- | --- | --- | --- | --- | --- |
| CC(C)=CCCC(C)CCC(C)=CC=O (stereo not drawn) [Compound 22, 3,6,10-Trimethylundeca-2,9-dienal] | 26 (≈ 125 µM) | 24 (≈ 115 µM) | 46 (≈ 221 µM) | 44 (≈ 211 µM) | 36 (≈ 173 µM) | 36 (≈ 173 µM) | 700 | 600 | 93 | 740 | 880 | 76 |  |  |  |
| CC(C)=CCCC(C)CC(C)=CC=O (stereo not drawn) [Compound 21, 3,5,9-Trimethyldeca-2,8-dienal] | 32 (≈ 165 µM) | 38 (≈ 196 µM) | 42 (≈ 216 µM) | 54 (≈ 278 µM) | 48 (≈ 247 µM) | 52 (≈ 268 µM) | 640 | 600 | 98 | 830 | 830 | 91 |  |  |  |
| CC(C)=CCCC(C)CC(C)C(C)=CCO (stereo not drawn) [Compound 29, 3,4,6,10-Tetramethylundeca-2,9-dien-1-ol] | 28 (≈ 125 µM) | 22 (≈ 98 µM) | 18 (≈ 80.2 µM) | 38 (≈ 169 µM) | 36 (≈ 160 µM) | 32 (≈ 143 µM) | 587 | 252 | 82 | 756 | 946 | 103 |  |  |  |
| CC(C)=CCCC(C)/C=C/CCC(C)=CC=O (stereo not drawn) [Compound 19, (6E)-3,8,12-Trimethyltrideca-2,6,11-trienal] | 28 (≈ 119 µM) | 34 (≈ 145 µM) | 38 (≈ 162 µM) | 44 (≈ 188 µM) | 36 (≈ 154 µM) | 42 (≈ 179 µM) | 600 | 550 | 96 | 750 | 650 | 94 |  |  |  |

Now from value to compound, other results behind:

| MIC [1] [µg/mL] | MIC [2] [µg/mL] | MIC [3] [µg/mL] | MIC [4] [µg/mL] | MIC [5] [µg/mL] | MIC [6] [µg/mL] | IC50 (Malignant Melanoma MEWO) [µM] | IC50 [7] [µM] | Structure (SMILES) | viability at 24 h, 1000 µM (MTT viability, HT29) [%] | IC50 (Fibroblasts HFIG) [µM] | IC50 (Keratinocytes HaCaT) [µM] | viability at 24 h, 1000 µM (MTT viability, IEC6) [%] | viability at 24 h, 1000 µM (MTT viability, MEWO) [%] | viability at 24 h, 1000 µM (MTT viability, HFIG) [%] | viability at 24 h, 1000 µM (MTT viability, HaCaT) [%] |
| --- | --- | --- | --- | --- | --- | --- | --- | --- | --- | --- | --- | --- | --- | --- | --- |
| 26 | 18 | 16 | 26 | 18 | 22 |  | 400 | CC(=O)OCC=C(C)CC(C)CCC=C(C)C (stereo not drawn) [Compound 33, 3,5,9-Trimethyldeca-2,8-dien-1-yl acetate] | 110 |  |  | 95 | 103 | 100 | 101 |
| 8 (≈ 24.1 µM) | 2 (≈ 6.04 µM) | 8 (≈ 24.1 µM) | 4 (≈ 12.1 µM) | 2 (≈ 6.04 µM) | 4 (≈ 12.1 µM) |  |  | O=C(O)c1cn(C2CC2)c2cc(N3CCNCC3)c(F)cc2c1=O [Ciprofloxacin, reference compound] |  |  |  |  |  |  |  |
| 26 (≈ 124 µM) | 18 (≈ 85.6 µM) | 16 (≈ 76.1 µM) | 28 (≈ 133 µM) | 16 (≈ 76.1 µM) | 18 (≈ 85.6 µM) | 512 | 198 | CC(C)=CCCC(C)CCC(C)=CCO (stereo not drawn) [Compound 28, 3,6,10-Trimethylundeca-2,9-dien-1-ol] | 93 | 687 | 698 | 101 |  |  |  |
